Legend:
bedstraw = test: Test B pre/postemergence bedstraw; assay type: in vivo, Galium aparine; details: Postemergence
In short: (§1)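 Response is a visual 0-to-10 score relative to untreated plants, where 0 means no effect and 10 means complete control, taken twelve to sixteen days after application. Treatments went onto soil at planting and onto foliage of 1- to 4-leaf plants, using a surfactant-containing non-phytotoxic solvent.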

blackgrass = test: Test B pre/postemergence blackgrass; assay type: in vivo, Alopecurus myosuroides
In short: as §1

surinam grass = test: Test B pre/postemergence surinam grass; assay type: in vivo, Brachiaria decumbens
In short: as §1

cocklebur = test: Test B pre/postemergence cocklebur; assay type: in vivo, Xanthium strumarium
In short: as §1

corn = test: Test B pre/postemergence corn; assay type: in vivo, Zea mays
In short: as §1

giant foxtail = test: Test B pre/postemergence giant foxtail; assay type: in vivo, Setaria faberii
In short: as §1

morningglory = test: Test B pre/postemergence morningglory; assay type: in vivo, Ipomoea hederacea
In short: as §1

pigweed = test: Test B pre/postemergence pigweed; assay type: in vivo, Amaranthus retroflexus
In short: as §1

rape = test: Test B pre/postemergence rape; assay type: in vivo, Brassica napus
In short: as §1

soybean = test: Test B pre/postemergence soybean; assay type: in vivo, Glycine max
In short: as §1

sugar beet = test: Test B pre/postemergence sugar beet; assay type: in vivo, Beta vulgaris
In short: as §1

velvetleaf = test: Test B pre/postemergence velvetleaf; assay type: in vivo, Abutilon theophrasti
In short: as §1

wheat = test: Test B pre/postemergence wheat; assay type: in vivo, Triticum aestivum
In short: as §1

wild oat = test: Test B pre/postemergence wild oat; assay type: in vivo, Avena fatua
In short: as §1

rice = test: Test B flood test rice; assay type: in vivo, Oryza sativa
In short: (§2)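 Each value is a visual injury score relative to controls, with 10 meaning complete control and 0 no effect. Evaluation took place twelve to sixteen days after the 2-leaf-stage plants were treated and kept in the greenhouse.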

smallflower flatsedge = test: Test B flood test smallflower flatsedge; assay type: in vivo, Cyperus difformis
In short: as §2

[1] = Postemergence, Rate 62 g/ha, scale 0 to 10, 0 is no effect, 10 is complete control
[2] = Postemergence, Rate 125 g/ha, scale of 0 to 10 where 0 is no effect and 10 is complete control
[3] = Postemergence, Rate 250 g/ha, scale of 0 to 10, 0 is no effect, 10 is complete control
[4] = Postemergence, Rate 500 g/ha, scale of 0 to 10 where 0 is no effect and 10 is complete control
[5] = Preemergence, Rate 62 g/ha, scale 0 to 10 (0 no effect, 10 complete control)
[6] = Preemergence, Rate 125 g/ha, scale of 0 to 10 where 0 is no effect and 10 is complete control
[7] = Preemergence, Rate 250 g/ha, scale 0 to 10 (0 no effect, 10 complete control)
[8] = Preemergence, Rate 500 g/ha, scale of 0 to 10 where 0 is no effect and 10 is complete control
[9] = Rate 62 g/ha, flood test species, Pre-emergence, visual evaluation after twelve to sixteen days
[10] = Rate 125 g/ha, under heading Pre-emergence, flood test species, visual evaluation after twelve to sixteen days
[11] = Rate 250 g/ha, Pre-emergence (flood test species), scale 0 to 10, 0 is no effect, 10 is complete control
[12] = Rate 500 g/ha, Pre-emergence section of Table B, 0 to 10 scale (0 no effect, 10 complete control)

CC(=O)N(C)CCn1c(=O)on(C(=O)N(c2ccc(F)cc2)C(C)C)c1=O [Compound 625] was tested, and the “Plant response rating, Bedstraw” value (bedstraw; Rate 62 g/ha, scale 0 to 10, 0 is no effect, 10 is complete control) was 0, the “Plant response rating, Bedstraw” value (bedstraw; Rate 125 g/ha, scale of 0 to 10 where 0 is no effect and 10 is complete control) was 0 and the “Plant response rating, Blackgrass” value (blackgrass; [1]) was 0. For the same molecule, the “Plant response rating, Blackgrass” value (blackgrass; [2]) was 2, the “Blackgrass plant response rating” value (blackgrass; [3]) was 7 and the “Plant response rating, Blackgrass” value (blackgrass; [4]) was 7. For the same molecule, the “Blackgrass plant response rating” value (blackgrass; [5]) was 0, the “Blackgrass plant response rating” value (blackgrass; [6]) was 3 and the “Plant response rating, Blackgrass” value (blackgrass; [7]) was 7. The “Plant response rating, Blackgrass” value (blackgrass; [8]) was 9, the “Plant response rating, B. signalgrass” value (surinam grass; [1]) was 0 and the “Plant response rating, B. signalgrass” value (surinam grass; [2]) was 0. For the same molecule, the “B. signalgrass plant response rating” value (surinam grass; [3]) was 2, the “Plant response rating, B. signalgrass” value (surinam grass; [4]) was 5 and the “B. signalgrass plant response rating” value (surinam grass; [5]) was 0. For the same molecule, the “B. signalgrass plant response rating” value (surinam grass; [6]) was 4, the “Plant response rating, B. signalgrass” value (surinam grass; [7]) was 8 and the “Plant response rating, B. signalgrass” value (surinam grass; [8]) was 10. For the same molecule, the “Plant response rating, Cocklebur” value (cocklebur; [1]) was 0, the “Plant response rating, Cocklebur” value (cocklebur; [2]) was 0 and the “Cocklebur plant response rating” value (cocklebur; [3]) was 0. The “Plant response rating, Cocklebur” value (cocklebur; [4]) was 0, the “Cocklebur plant response rating” value (cocklebur; [5]) was 0 and the “Cocklebur plant response rating” value (cocklebur; [6]) was 0. The “Plant response rating, Cocklebur” value (cocklebur; [7]) was 0, the “Plant response rating, Cocklebur” value (cocklebur; [8]) was 0 and the “Plant response rating, Corn” value (corn; [1]) was 0. For the same molecule, the “Plant response rating, Corn” value (corn; [2]) was 0, the “Corn plant response rating” value (corn; [3]) was 0 and the “Plant response rating, Corn” value (corn; [4]) was 3. For the same molecule, the “Corn plant response rating” value (corn; [5]) was 0, the “Corn plant response rating” value (corn; [6]) was 0 and the “Plant response rating, Corn” value (corn; [7]) was 0. The “Plant response rating, Corn” value (corn; [8]) was 3, the “Plant response rating, Giant foxtail” value (giant foxtail; [1]) was 0 and the “Plant response rating, Giant foxtail” value (giant foxtail; [2]) was 3. The “Giant foxtail plant response rating” value (giant foxtail; [3]) was 5, the “Plant response rating, Giant foxtail” value (giant foxtail; [4]) was 9 and the “Giant foxtail plant response rating” value (giant foxtail; [5]) was 6. For the same molecule, the “Giant foxtail plant response rating” value (giant foxtail; [6]) was 9, the “Plant response rating, Giant foxtail” value (giant foxtail; [7]) was 10 and the “Plant response rating, Giant foxtail” value (giant foxtail; [8]) was 10. For the same molecule, the “Plant response rating, Morningglory” value (morningglory; [1]) was 0, the “Plant response rating, Morningglory” value (morningglory; [2]) was 1 and the “Morningglory plant response rating” value (morningglory; [3]) was 1. For the same molecule, the “Plant response rating, Morningglory” value (morningglory; [4]) was 2, the “Morningglory plant response rating” value (morningglory; [5]) was 0 and the “Morningglory plant response rating” value (morningglory; [6]) was 0. For the same molecule, the “Plant response rating, Morningglory” value (morningglory; [7]) was 2, the “Plant response rating, Morningglory” value (morningglory; [8]) was 3 and the “Plant response rating, Redroot pigweed” value (pigweed; [1]) was 0. The “Plant response rating, Redroot pigweed” value (pigweed; [2]) was 0, the “Redroot pigweed plant response rating” value (pigweed; [3]) was 0 and the “Redroot pigweed plant response rating” value (pigweed; [5]) was 0. For the same molecule, the “Redroot pigweed plant response rating” value (pigweed; [6]) was 0, the “Plant response rating, Redroot pigweed” value (pigweed; [7]) was 4 and the “Plant response rating, Redroot pigweed” value (pigweed; [8]) was 8. For the same molecule, the “Plant response rating, Rape” value (rape; [1]) was 0, the “Plant response rating, Rape” value (rape; [2]) was 0 and the “Rape plant response rating” value (rape; [3]) was 0. For the same molecule, the “Plant response rating, Rape” value (rape; [4]) was 0, the “Rape plant response rating” value (rape; [5]) was 0 and the “Rape plant response rating” value (rape; [6]) was 0. The “Plant response rating, Rape” value (rape; [8]) was 4, the “Plant response rating, Soybean” value (soybean; [1]) was 0 and the “Plant response rating, Soybean” value (soybean; [2]) was 2. The “Soybean plant response rating” value (soybean; [3]) was 3, the “Soybean plant response rating” value (soybean; [5]) was 0 and the “Soybean plant response rating” value (soybean; [6]) was 0. The “Plant response rating, Soybean” value (soybean; [7]) was 0, the “Plant response rating, Soybean” value (soybean; [8]) was 0 and the “Plant response rating, Sugarbeets” value (sugar beet; [1]) was 0. For the same molecule, the “Plant response rating, Sugarbeets” value (sugar beet; [2]) was 0, the “Sugarbeets plant response rating” value (sugar beet; [3]) was 0 and the “Sugarbeets plant response rating” value (sugar beet; [5]) was 0. The “Sugarbeets plant response rating” value (sugar beet; [6]) was 0, the “Plant response rating, Sugarbeets” value (sugar beet; [7]) was 0 and the “Plant response rating, Sugarbeets” value (sugar beet; [8]) was 0. The “Plant response rating, Velvetleaf” value (velvetleaf; [1]) was 0, the “Plant response rating, Velvetleaf” value (velvetleaf; [2]) was 0 and the “Velvetleaf plant response rating” value (velvetleaf; [3]) was 0. For the same molecule, the “Velvetleaf plant response rating” value (velvetleaf; [5]) was 0, the “Velvetleaf plant response rating” value (velvetleaf; [6]) was 0 and the “Plant response rating, Velvetleaf” value (velvetleaf; [7]) was 1. For the same molecule, the “Plant response rating, Velvetleaf” value (velvetleaf; [8]) was 6, the “Plant response rating, Wheat” value (wheat; [1]) was 0 and the “Plant response rating, Wheat” value (wheat; [2]) was 0. The “Wheat plant response rating” value (wheat; [3]) was 0, the “Wheat plant response rating” value (wheat; [5]) was 0 and the “Wheat plant response rating” value (wheat; [6]) was 0. The “Plant response rating, Wheat” value (wheat; [7]) was 0, the “Plant response rating, Wheat” value (wheat; [8]) was 3 and the “Plant response rating, Wild oats” value (wild oat; [1]) was 0. For the same molecule, the “Plant response rating, Wild oats” value (wild oat; [2]) was 0, the “Wild oats plant response rating” value (wild oat; [3]) was 0 and the “Wild oats plant response rating” value (wild oat; [5]) was 0. The “Wild oats plant response rating” value (wild oat; [6]) was 0, the “Plant response rating, Wild oats” value (wild oat; [7]) was 3 and the “Plant response rating, Wild oats” value (wild oat; [8]) was 5. The “Plant response rating, Rice (0 to 10 scale, 0 is no effect, 10 is complete control)” value (rice; [9]) was 0, the “Rice plant response rating (0 to 10 scale, 0 is no effect, 10 is complete control)” value (rice; [10]) was 0 and the “Rice plant response rating” value (rice; [11]) was 0. For the same molecule, the “Rice plant response rating” value (rice; [12]) was 0, the “Plant response rating, S. Flatsedge (0 to 10 scale, 0 is no effect, 10 is complete control)” value (smallflower flatsedge; [9]) was 0 and the “S. Flatsedge plant response rating (0 to 10 scale, 0 is no effect, 10 is complete control)” value (smallflower flatsedge; [10]) was 0. For the same molecule, the “S. Flatsedge plant response rating” value (smallflower flatsedge; [11]) was 0 and the “S. Flatsedge plant response rating” value (smallflower flatsedge; [12]) was 0.

Reference: patent publication US6737383B1, “Herbicidal oxadiazolidines” (priority 1999, dated 2004)
